Data as given in US9023800B2, “Peptides for the treatment of oxidative stress related disorders” (Ramot at Tel-Aviv University Ltd., priority 2009, dated 2015).

Key:
[1] = system: human neuroblastoma SH-SY5Y cells; assay: Serum deprivation in neuroblastoma cells; format: cell-based; conditions: during serum deprivation, vs saline (FIG. 4A)
Protocol: FIG. 4A is a bar graph illustrating that DJ-1-related peptides are protective against serum deprivation.
(§1) Human neuroblastoma SH-SY5Y cells are obtained from the American tissue Type Culture Collection (ATCC, Rockville, USA). Cells are grown under sterile conditions as monolayer in DMEM medium supplemented with 10% heat-inactivated fetal calf serum (FCS), gentamicin ([…]), and glutamine (5 mM) in a 5% CO2 humidified atmosphere at 37° C. The medium is routinely changed every 4 days, and cells are passaged every 8 days. All experiments are performed on cells which are near confluence.

[2] = system: neuronally differentiated murine neural stem cells; assay: Oxidative insult (H2O2) in neuronally differentiated neural stem cells; format: cell-based; conditions: pretreated vs saline before exposure to hydrogen peroxide (FIG. 6)
Protocol: Neural progenitor/stem cells are isolated from murine cortex of postnatal c57/bl mice and cultured as neurospheres. Neural and astroglial differentiation are induced.
Susceptibility of differentiated and undifferentiated neural progenitor/stem cells to oxidative and toxic insults are determined with and without prior pretreatment with DJ-1 related peptides.
Susceptibility of differentiated and undifferentiated neural progenitor/stem cells to oxidative and toxic insults was determined with and without prior pretreatment with DJ-1 related peptides, as illustrated in FIG. 6.

[3] = system: human neuroblastoma SH-SY5Y cells; assay: 6-hydroxydopamine toxicity in neuroblastoma cells; format: cell-based
Protocol: as §1, with “confluence. […]” for “confluence.”
(§2) Cells are seeded in 96-wells plates at the concentration of 5000 cells per well and allowed to attach over night. […] Alamar blue fluorescence is measured by FLUOstar spectrofluorometer at the excitation wavelength of 544 nm and the emission wavelength of 590 nm. […]
(§3) LDH released by damaged cells into the cell culture supernatant is determined using LDH cytotoxicity detection kit (Clontech laboratories, CA, USA), according to the manufacturer's instructions. […] The percentage of dead cells is calculated by the following formula of the absorbance values: (triplicate absorbance−low control)/(maximum absorption−low control)×100.
Hoechst 33342 enters cells with intact or damaged membranes and stains DNA in blue, thereby allowing evaluation of cell number in each well as well. […] Excitation is performed at 346 nm and emission wavelength is determined at 460 nm. […]

[4] = system: HaCaT cells; assay: Protection against UV radiation in keratinocytes; format: cell-based, human; conditions: HaCaT pretreated vs saline before UV radiation (FIG. 14)
Protocol: The immortalized human HaCaT keratinocyte cells are used to test DJ-1 related peptides ability to protect against UV radiation induced injury. Cells are maintained in minimal essential medium containing 0.075 mM Ca^2+ (MEM-75) and 10% FCS in 5 cm Petri-dishes and subcultured every 3-4 days.
Cultured keratinocytes were used to examine the ability of DJ-1 related peptides to protect against the damaging effects of UV radiation.

[5] = system: human neuroblastoma SH-SY5Y cells; assay: Hydrogen peroxide (H2O2) oxidative stress in neuroblastoma cells; format: cell-based
Protocol: as §1
(§4) Neuroblastoma cells are contacted with hydrogen peroxide (H2O2) (0-1 mM; Sigma, Chemicals Co., St. Louis, Mo., USA), 6-hydroxydopamine (0-100 μM; Sigma, Chemicals Co., St. Louis, Mo., USA), dopamine (0-500 μM; Sigma, Chemicals Co., St. Louis, Mo., USA) and 3-(4-morpholinyl)-sydnonimine (SIN-I) (0-5 mM; Sigma), (which is a peroxynitrite free radical donor), in order to produce ROS formation.
Several methods are used in order to determine the toxic effects of oxidative insults, neurotoxins and dopamine on cellular metabolic activity, mitochondrial activity and cell viability.
as §2, §3
Hoechst 33342 enters cells with intact or damaged membranes and stains DNA in blue, thereby allowing evaluation of cell number in each well as well. A FLUOstar spectrofluorometer microplate reader may be used in order to evaluate the cell number in each well following exposure to different doses of various toxins. Excitation is performed at 346 nm and emission wavelength is determined at 460 nm. […]

[6] = system: human neuroblastoma SH-SY5Y cells; assay: Cell proliferation by [3H]thymidine incorporation; format: cell-based; conditions: exposure to the peptides (FIG. 1D)
Protocol: FIGS. 1A-F are bar graphs illustrating that DJ-1-related peptide TAT 2a (SEQ ID NO: 24) is protective in vitro against oxidative and toxic insults. […] Cell proliferation was measured by quantifying [^3H]thymidine incorporation. […] The presented experiments were done on human neuroblastoma SH-SY5Y cells, and repeated at least 3 times. *p<0.05, as compared to control cells treated with vehicle and exposed to the same toxic insult.
as §1

[7] = system: human neuroblastoma SH-SY5Y cells; assay: Dopamine toxicity in neuroblastoma cells; format: cell-based; conditions: SH-SY5Y (FIG. 1F)
Protocol: as §1, §4
Cells are seeded in 96-wells plates at the concentration of 5000 cells per well and allowed to attach over night. On the following day, the cells are exposed to increasing doses of dopamine (0-500 uM) for 4 hours in serum free medium. Alamar blue is a non toxic reagent which incorporates a redox indicator that changes color in response to metabolic activity. […] Alamar blue fluorescence is measured by FLUOstar spectrofluorometer at the excitation wavelength of 544 nm and the emission wavelength of 590 nm. […]

[8] = system: primary mixed neuronal and glial cultures obtained from cortex of postnatal wild type C57/bl mice; assay: Hydrogen peroxide toxicity in primary cultures; format: cell-based; conditions: increasing concentrations of hydrogen peroxide (FIGS. 5A-B)
Protocol: (§5) Murine neuronal and astrocytes primary cultures derived from cortical tissues of post natal c57/bl mice are prepared and used in order to examine protective potential of DJ-1 related peptides.
(§6) T protective effects of DJ-1 peptides on primary cultures, and on differentiated and undifferentiated neural stem cells obtained from C57/bl mice brains were evaluated. […] Specifically, FIGS. 5A-B illustrate protection of Tat 2A against oxidative and toxic injuries in primary mixed neuronal and astrocytes cultures from post natal mice brains. Neural progenitor/stem cells were isolated from murine cortex of postnatal c57/bl mice and cultured as neuro spheres. Neural and astroglial differentiation were induced.

[9] = system: primary mixed neuronal and glial cultures obtained from cortex of postnatal wild type C57/bl mice; assay: 6-hydroxydopamine toxicity in primary cultures; format: cell-based; conditions: increasing concentrations of 6-hydroxydopamine (FIGS. 5A-B)
Protocol: as §5, §6

[10] = system: neuroblastoma cells overexpressing A53T alpha-synuclein; assay: Hydrogen peroxide toxicity in cells overexpressing mutant alpha-synuclein; format: cell-based, human; conditions: A53T alpha-synuclein cells exposed to hydrogen peroxide (FIG. 10)
Protocol: The coding region of human wild-type or A53T mutant alpha-synuclein cDNA is subcloned into pcDNA3.1-plasmid (BD Biosciences, Clontech). In order to achieve overexpression of A53T mutant alpha-synuclein, SH-SY5Y neuroblastoma cells are stably transfected with the plasmid containing A53T mutant alpha-synuclein. Transfections are performed using the lipofectamine 2000 reagent (Invitrogen, Carlsbad, Calif.). Selection of transfected cells is performed by treating the cells with lethal doses of geniticin (G-418). Naive neuroblastoma cells as well as cells stably transfected with the empty vector are used as controls.
Stable transfections are verified by measuring alpha-synuclein mRNA and protein levels using real-time PCR and Western blotting.
A53T mutant alpha-synuclein is one of the causes for genetically inherited Parkinson's Disease. Neuroblastoma cells overexpressing mutated alpha-synuclein were used as a cellular platform for Parkinson's Disease. In order to achieve overexpression of A53T mutant alpha-synuclein, SH-SY5Y neuroblastoma cells were stably transfected with the plasmid containing A53T mutant alpha-synuclein.

[11] = system: NSC-34 cells; assay: Hydrogen peroxide toxicity in cellular model of ALS; format: cell-based; conditions: NSC-34 pretreated vs saline before hydrogen peroxide (FIG. 12A)
Excerpt: (§7) NSC-34 cells were used as a cellular model for ALS. Increasing doses of hydrogen peroxide and SIN-I, an NO donor, which are implicated in the pathogenesis of ALS were used.

[12] = system: NSC-34 cells; assay: SIN-I toxicity in cellular model of ALS; format: cell-based; conditions: NSC-34 pretreated vs saline before SIN-I (FIG. 12B)
Protocol: as §4, §7

[13] = system: 6-hydroxydopamine hemiparkinsonian mice model; assay: In vivo 6-hydroxydopamine induced hemiparkinsonian mice model
[14] = system: MPTP Parkinson's model; assay: MPTP Parkinson's model in mice; format: in vivo; conditions: subcutaneous 0.4 mM; MPTP 20 mg/kg i.p. 5 consecutive days; 18 days later (FIG. 17)
Protocol: In order to generate an animal model for Parkinson's disease, mice were treated with 1-methyl-4-phenyl-1,2,3,6-tetrahydropyridine (MPTP). 5 mice (C57/bl) were injected for 5 consecutive days with 20 mg/kg MPTP (i.p.) in the presence and absence of the DJ-1 related peptide (0.4 mM subcutaneous; SEQ ID NO: 25). 18 days later, the mice were sacrificed and the dopamine level, in the two hemispheres was measured by HPLC.

For GAEEME (Artificial seqence) [peptide I], the viability [1] was “Increased viability” and the viability [2] was “Increased viability”.
For “KGAEEMETVIPV (Artificial seqence) [short 2a]”, the viability [1] was “Increased viability”.
“VDVMRRAGI (Artificial seqence) [peptide II]” was tested, and the viability ([3]; SH-SY5Y pretreated vs saline before 6-hydroxydopamine (FIG. 3)) was “Increased viability”, the viability [1] was “Increased viability” and the viability [2] was “Increased viability”. For the same substance, the metabolic activities [4] was “Increased metabolic activities”.
“YGRKKRRKGAEEMETVIPVD (Artificial seqence) [TAT 2a]” was tested, and the cell viability ([5]; exposure to H2O2, vs saline alone (FIG. 1A)) was “Increased cell viability”, the mitochondrial damage ([5]; exposure to H2O2, vs saline alone (FIG. 1B)) was “decreased mitochondrial damage” and the metabolic activity ([5]; exposure to H2O2, vs saline alone (FIG. 1C)) was “increased metabolic activity”. For the same substance, the “cell proliferation ([3H]thymidine incorporation)” value [6] was “no increased cell proliferation”, the “protection against 6-hydroxydopamine toxicity” value ([3]; SH-SY5Y (FIG. 1E)) was “Protection” and the “protection against dopamine toxicity” value [7] was “Protection”. For the same substance, the “protection against H2O2 toxicity” value [8] was “protection”, the “protection against 6-hydroxydopamine toxicity” value [9] was “protection” and the viability [10] was “Significantly increased viability”. The viability [11] was “Increased viability”, the viability [12] was “Increased viability” and the metabolic activities [4] was “Increased metabolic activities”. For the same substance, the “fraction of the lesioned mice that rotated in response to amphetamine injection” value ([13]; 50 μg IV 4 hours before 6-hydroxydopamine lesioning (FIG. 16B)) was “smaller fraction”, the amphetamine-induced rotations ([13]; 50 μg IV 4 hours before 6-hydroxydopamine lesioning, vs saline (FIG. 16A)) was “Significantly reduced” and the “fraction of the lesioned mice that rotated in response to amphetamine injection” value ([13]; intrastriatal 2 μl of 100 μM one hour before lesioning (FIG. 15B)) was “smaller fraction”. The amphetamine-induced rotations ([13]; intrastriatal 2 μl of 100 μM one hour before lesioning, 2 and 4 weeks after lesioning, vs saline (FIG. 15A)) was “Significantly reduced”, the “accelerating Rotarod examination” value ([13]; intrastriatal peptide vs saline-treated controls, p=0.02) was “significant difference” and the “6-hydroxydopamine-induced loss of tyrosine hydroxylase (TH) staining in the lesioned striatum” value ([13]; intrastriatal peptide, immunohistochemical staining) was “reversed”.
In the case of “YGRKKRRTVIPVDVMRRAGI (Artificial seqence) [TAT 2b]”, the viability [11] was “Increased viability”, the viability [12] was “Increased viability” and the “protection against MPTP Parkinson's model (dopamine level by HPLC)” value [14] was “protects”.
